Results: ChEMBL document CHEMBL5291721, “A preclinical secondary pharmacology resource illuminates target-adverse drug reaction associations of marketed drugs” (Nat Commun, 2023)

What was measured:
[1] = target: T1, Alpha-1A adrenergic receptor (Homo sapiens, UniProt P35348); type: functional, cell-based
T1 sequence (P35348 whole entry): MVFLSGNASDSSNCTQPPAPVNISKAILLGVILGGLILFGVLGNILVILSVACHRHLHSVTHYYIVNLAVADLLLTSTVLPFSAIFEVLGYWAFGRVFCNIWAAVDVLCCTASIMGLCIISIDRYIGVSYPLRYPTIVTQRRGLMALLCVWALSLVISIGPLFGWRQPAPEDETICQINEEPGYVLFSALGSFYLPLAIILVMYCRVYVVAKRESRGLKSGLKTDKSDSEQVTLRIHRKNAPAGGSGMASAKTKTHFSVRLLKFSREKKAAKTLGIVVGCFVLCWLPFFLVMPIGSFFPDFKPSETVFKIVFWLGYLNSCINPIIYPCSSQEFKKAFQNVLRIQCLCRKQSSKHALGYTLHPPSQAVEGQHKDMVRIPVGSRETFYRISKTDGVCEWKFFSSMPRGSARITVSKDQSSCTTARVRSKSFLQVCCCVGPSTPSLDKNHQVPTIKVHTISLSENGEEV

Estrogen receptor = target: T2, Estrogen receptor (Homo sapiens, UniProt P03372)
T2 sequence (P03372 whole entry): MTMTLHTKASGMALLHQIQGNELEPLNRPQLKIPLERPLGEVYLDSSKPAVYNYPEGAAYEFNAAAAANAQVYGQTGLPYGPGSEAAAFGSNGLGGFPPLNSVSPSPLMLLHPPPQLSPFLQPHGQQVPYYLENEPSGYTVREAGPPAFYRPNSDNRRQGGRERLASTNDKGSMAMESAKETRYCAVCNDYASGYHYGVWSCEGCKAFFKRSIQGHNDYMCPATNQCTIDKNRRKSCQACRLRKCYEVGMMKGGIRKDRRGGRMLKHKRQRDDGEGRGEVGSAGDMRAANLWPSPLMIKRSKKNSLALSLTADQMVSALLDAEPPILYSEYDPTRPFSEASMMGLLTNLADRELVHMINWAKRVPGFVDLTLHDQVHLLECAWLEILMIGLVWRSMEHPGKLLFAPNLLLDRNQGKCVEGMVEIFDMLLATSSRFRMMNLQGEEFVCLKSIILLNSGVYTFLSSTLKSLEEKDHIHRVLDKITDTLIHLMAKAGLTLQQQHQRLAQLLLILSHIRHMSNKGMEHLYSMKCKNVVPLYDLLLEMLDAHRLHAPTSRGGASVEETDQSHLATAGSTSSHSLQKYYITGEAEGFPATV

[2] = target: Vascular endothelial growth factor receptor 2 (Homo sapiens, UniProt P35968); type: functional
[3] = target: Sodium-dependent serotonin transporter (Homo sapiens, UniProt P31645)
[4] = target: 3',5'-cyclic-AMP phosphodiesterase 4D (Homo sapiens, UniProt Q08499); type: functional
[5] = target: T3, Amine oxidase [flavin-containing] A (Homo sapiens, UniProt P21397); type: functional
T3 sequence (P21397 whole entry): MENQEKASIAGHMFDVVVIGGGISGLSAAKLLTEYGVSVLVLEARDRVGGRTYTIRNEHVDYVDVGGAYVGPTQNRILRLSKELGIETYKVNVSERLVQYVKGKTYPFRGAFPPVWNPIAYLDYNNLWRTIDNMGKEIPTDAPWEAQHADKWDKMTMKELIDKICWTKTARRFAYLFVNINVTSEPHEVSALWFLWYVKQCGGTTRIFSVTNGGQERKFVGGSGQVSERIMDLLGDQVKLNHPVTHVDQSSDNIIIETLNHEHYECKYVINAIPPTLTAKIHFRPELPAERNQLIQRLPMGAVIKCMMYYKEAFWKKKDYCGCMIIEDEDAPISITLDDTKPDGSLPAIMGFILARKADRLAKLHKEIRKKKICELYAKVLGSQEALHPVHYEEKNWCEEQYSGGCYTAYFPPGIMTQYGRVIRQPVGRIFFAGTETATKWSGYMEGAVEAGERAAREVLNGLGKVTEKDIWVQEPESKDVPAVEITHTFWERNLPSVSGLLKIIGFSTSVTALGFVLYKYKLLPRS

[6] = target: T4, Muscarinic acetylcholine receptor M2 (Homo sapiens, UniProt P08172); type: functional, cell-based
T4 sequence (P08172 whole entry): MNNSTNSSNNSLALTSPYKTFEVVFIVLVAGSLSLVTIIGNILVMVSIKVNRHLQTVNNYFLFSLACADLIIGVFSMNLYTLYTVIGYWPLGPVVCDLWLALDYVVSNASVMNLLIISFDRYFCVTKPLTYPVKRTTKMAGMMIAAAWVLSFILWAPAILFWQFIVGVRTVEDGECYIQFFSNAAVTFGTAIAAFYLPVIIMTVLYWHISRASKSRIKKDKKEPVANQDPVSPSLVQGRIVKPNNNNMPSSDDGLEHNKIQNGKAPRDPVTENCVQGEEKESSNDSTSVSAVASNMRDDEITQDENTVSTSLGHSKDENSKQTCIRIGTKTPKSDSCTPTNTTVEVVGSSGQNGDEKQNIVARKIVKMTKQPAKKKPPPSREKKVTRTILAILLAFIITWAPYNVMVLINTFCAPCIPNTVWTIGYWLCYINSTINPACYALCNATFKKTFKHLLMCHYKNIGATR

Vasopressin V1a receptor = Vasopressin V1a receptor (Homo sapiens, UniProt P37288)
Vasopressin V2 receptor = Vasopressin V2 receptor (Homo sapiens, UniProt P30518)
[7] = target: Growth hormone secretagogue receptor type 1 (Homo sapiens, UniProt Q92847)
[8] = target: T5, Equilibrative nucleoside transporter 1 (Homo sapiens, UniProt Q99808)
T5 sequence (Q99808 whole entry): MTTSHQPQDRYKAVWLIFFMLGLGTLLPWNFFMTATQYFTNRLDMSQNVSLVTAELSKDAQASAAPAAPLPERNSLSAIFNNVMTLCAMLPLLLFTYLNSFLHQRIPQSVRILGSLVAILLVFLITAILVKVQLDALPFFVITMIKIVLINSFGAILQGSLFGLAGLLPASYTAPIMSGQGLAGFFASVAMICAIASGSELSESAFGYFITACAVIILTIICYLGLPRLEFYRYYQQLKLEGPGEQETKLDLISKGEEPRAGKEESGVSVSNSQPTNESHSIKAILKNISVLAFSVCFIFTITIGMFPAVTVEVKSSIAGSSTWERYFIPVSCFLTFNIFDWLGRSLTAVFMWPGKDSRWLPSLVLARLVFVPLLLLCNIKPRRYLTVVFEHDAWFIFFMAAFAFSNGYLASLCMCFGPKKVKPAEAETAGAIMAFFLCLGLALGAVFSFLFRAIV
Also: assay procedure not described here.

Chain of Vascular endothelial growth factor receptor 2 (P35968 whole entry): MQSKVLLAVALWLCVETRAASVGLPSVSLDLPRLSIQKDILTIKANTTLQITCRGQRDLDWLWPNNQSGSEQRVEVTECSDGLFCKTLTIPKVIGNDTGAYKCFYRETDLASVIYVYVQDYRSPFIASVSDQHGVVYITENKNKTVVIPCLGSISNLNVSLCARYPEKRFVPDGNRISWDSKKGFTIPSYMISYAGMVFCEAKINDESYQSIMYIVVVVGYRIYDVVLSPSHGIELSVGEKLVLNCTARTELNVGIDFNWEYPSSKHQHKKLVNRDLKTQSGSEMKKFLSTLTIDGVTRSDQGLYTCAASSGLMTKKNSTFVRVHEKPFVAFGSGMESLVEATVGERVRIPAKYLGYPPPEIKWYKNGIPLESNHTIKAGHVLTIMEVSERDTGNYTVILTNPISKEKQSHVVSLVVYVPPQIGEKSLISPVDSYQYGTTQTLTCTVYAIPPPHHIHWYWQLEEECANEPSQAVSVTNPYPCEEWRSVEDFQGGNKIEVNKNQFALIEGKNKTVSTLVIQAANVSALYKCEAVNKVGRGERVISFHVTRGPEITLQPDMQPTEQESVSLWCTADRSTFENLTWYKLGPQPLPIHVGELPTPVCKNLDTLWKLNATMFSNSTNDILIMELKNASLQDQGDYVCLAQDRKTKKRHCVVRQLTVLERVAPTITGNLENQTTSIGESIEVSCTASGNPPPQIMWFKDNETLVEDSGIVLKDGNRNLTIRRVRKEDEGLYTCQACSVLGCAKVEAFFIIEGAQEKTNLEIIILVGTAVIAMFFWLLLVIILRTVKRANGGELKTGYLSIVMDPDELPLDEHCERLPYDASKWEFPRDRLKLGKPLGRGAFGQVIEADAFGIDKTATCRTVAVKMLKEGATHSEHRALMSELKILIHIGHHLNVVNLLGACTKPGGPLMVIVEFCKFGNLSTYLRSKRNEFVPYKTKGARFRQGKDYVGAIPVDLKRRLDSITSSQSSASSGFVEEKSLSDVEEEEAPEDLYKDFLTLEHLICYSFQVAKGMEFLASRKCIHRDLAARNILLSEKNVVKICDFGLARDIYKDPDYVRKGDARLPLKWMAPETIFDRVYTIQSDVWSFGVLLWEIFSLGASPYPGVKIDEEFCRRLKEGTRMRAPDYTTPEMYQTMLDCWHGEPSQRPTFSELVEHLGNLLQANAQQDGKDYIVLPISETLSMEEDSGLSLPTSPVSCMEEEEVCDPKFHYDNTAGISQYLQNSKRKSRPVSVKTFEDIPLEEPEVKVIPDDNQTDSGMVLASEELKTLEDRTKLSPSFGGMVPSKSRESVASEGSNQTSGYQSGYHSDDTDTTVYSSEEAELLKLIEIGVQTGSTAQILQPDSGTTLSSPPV
Chain of Vasopressin V1a receptor (P37288 whole entry): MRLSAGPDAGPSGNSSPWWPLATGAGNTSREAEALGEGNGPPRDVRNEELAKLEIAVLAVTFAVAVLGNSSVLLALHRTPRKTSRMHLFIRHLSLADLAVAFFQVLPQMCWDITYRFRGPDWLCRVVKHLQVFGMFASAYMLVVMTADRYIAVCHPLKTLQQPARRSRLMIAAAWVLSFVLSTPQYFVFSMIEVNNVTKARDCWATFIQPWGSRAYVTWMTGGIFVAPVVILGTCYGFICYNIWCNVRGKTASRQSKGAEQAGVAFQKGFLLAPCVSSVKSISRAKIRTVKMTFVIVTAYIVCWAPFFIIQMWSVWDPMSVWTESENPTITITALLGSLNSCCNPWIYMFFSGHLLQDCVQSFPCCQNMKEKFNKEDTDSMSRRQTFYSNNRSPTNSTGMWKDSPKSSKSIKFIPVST
Chain of 3',5'-cyclic-AMP phosphodiesterase 4D (Q08499 whole entry): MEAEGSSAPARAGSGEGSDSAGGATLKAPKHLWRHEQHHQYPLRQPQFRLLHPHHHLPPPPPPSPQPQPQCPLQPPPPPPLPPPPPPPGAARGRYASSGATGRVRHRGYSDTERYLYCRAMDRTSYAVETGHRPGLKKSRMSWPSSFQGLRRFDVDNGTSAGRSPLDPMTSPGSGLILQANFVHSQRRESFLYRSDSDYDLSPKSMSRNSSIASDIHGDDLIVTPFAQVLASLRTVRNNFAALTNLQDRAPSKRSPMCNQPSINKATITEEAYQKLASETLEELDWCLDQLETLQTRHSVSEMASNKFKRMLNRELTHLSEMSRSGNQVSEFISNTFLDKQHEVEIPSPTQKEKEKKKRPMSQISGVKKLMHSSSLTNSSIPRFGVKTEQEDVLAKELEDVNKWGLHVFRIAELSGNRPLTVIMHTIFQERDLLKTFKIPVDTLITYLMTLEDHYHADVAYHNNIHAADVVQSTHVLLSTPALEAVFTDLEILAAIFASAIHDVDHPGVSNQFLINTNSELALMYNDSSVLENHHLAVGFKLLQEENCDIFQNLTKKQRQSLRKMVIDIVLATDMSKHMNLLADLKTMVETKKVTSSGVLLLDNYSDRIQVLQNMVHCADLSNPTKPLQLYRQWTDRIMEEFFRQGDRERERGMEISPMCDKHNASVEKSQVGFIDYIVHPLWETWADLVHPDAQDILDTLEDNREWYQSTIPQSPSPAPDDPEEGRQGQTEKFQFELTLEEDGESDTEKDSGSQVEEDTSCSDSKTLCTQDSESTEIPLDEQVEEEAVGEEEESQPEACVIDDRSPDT
Chain of Sodium-dependent serotonin transporter (P31645 whole entry): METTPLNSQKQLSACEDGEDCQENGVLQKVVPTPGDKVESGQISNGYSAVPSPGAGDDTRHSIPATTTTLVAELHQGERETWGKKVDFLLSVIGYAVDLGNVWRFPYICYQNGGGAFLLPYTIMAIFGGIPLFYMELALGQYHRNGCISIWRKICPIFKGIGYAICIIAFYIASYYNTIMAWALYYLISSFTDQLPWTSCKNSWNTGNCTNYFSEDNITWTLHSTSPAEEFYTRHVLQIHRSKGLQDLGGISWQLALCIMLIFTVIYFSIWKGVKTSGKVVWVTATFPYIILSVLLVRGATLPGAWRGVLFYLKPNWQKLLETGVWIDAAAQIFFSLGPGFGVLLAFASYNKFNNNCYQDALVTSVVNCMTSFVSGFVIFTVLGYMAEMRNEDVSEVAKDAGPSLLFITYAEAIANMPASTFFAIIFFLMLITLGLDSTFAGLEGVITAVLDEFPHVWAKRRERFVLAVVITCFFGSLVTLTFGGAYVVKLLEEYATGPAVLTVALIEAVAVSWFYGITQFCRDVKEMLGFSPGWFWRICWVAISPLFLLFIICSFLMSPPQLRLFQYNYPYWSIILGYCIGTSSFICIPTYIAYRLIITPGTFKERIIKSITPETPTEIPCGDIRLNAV
Chain of Growth hormone secretagogue receptor type 1 (Q92847 whole entry): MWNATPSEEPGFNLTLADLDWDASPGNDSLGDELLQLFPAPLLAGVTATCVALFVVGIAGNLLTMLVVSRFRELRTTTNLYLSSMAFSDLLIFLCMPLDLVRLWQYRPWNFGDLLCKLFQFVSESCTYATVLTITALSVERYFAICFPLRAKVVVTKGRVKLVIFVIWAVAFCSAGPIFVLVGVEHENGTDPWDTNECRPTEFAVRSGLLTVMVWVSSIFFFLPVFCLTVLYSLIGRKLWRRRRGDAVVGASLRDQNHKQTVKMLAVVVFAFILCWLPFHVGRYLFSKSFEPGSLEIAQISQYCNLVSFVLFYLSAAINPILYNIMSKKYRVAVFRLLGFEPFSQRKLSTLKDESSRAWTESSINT
Chain of Vasopressin V2 receptor (P30518 whole entry): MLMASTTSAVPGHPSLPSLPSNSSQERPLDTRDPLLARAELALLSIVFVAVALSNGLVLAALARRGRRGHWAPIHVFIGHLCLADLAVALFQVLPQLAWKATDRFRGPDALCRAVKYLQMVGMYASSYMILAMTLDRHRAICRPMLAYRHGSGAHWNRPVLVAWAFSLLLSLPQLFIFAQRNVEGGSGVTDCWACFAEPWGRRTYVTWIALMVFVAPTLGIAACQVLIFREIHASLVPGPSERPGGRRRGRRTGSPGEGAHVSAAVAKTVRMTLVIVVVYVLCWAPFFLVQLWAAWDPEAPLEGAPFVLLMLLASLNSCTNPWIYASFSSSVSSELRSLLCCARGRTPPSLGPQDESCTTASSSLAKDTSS

Row | SMILES | AC50 [1] [µM] | AC50 (Estrogen receptor) [µM] | AC50 [2] [µM] | AC50 [3] [µM] | AC50 [4] [µM] | AC50 [5] [µM] | AC50 [6] [µM] | AC50 (Vasopressin V1a receptor) [µM] | AC50 (Vasopressin V2 receptor) [µM] | AC50 [7] [µM] | AC50 [8] [µM]
1 | CC[C@@H]1C[C@]1(NC(=O)[C@@H]1C[C@@H]2CN1C(=O)[C@H](C(C)(C)C)NC(=O)OCC(C)(C)CCCCc1cccc3c1CN(C3)C(=O)O2)C(=O)NS(=O)(=O)C1CC1 | > 3 | > 30 | 16.3 | > 30 | – | – | – | – | – | – | –
2 | CC(=O)NO [ACETOHYDROXAMIC ACID] | > 30 | – | – | > 30 | – | – | – | – | – | – | –
3 | CC(=O)NCCCCCC(=O)O [ACEXAMIC ACID] | – | > 30 | > 30 | > 30 | – | – | – | – | – | – | –
4 | C=C(C)CNc1ccc(C(C)C(=O)O)cc1 (stereo not drawn) [ALMINOPROFEN] | > 30 | > 30 | > 30 | > 30 | – | – | – | – | – | – | –
5 | C[C@H]1CN(C[C@H](Cc2ccccc2)C(=O)NCC(=O)O)CC[C@@]1(C)c1cccc(O)c1 [ALVIMOPAN] | > 30 | > 30 | > 30 | > 30 | – | – | – | – | – | – | –
6 | CC(C)NC(=N)NC(=N)Nc1ccc(Cl)c(Cl)c1 [CHLORPROGUANIL] | – | > 30 | – | 5.81 | > 30 | > 30 | – | – | – | – | –
7 | C[N+](C)(C)CCOP(=O)(O)OP(=O)([O-])OC[C@H]1O[C@@H](n2ccc(N)nc2=O)[C@H](O)[C@@H]1O [CITICOLINE] | > 30 | > 30 | – | > 30 | > 30 | > 30 | > 30 | – | – | – | –
8 | CN[C@@H]1[C@H](O[C@H]2[C@H](O[C@H]3[C@H](O)[C@@H](O)[C@H](NC(=N)N)[C@@H](O)[C@@H]3NC(=N)N)O[C@@H](C)[C@]2(O)CO)O[C@@H](CO)[C@H](O)[C@H]1O [DIHYDROSTREPTOMYCIN] | – | – | – | > 30 | – | – | – | – | – | – | –
9 | CC[C@H]1OC(=O)[C@H](C)[C@@H](O[C@H]2C[C@@](C)(OC)[C@@H](O)[C@H](C)O2)[C@H](C)[C@@H](O[C@@H]2O[C@H](C)C[C@H](N(C)C)[C@H]2O)[C@](C)(O)C[C@@H](C)[C@@H]2N[C@@H](COCCOC)O[C@H]([C@H]2C)[C@]1(C)O [DIRITHROMYCIN] | > 30 | > 30 | – | > 30 | – | – | – | – | – | – | –
10 | CCCCc1oc2ccc(NS(C)(=O)=O)cc2c1C(=O)c1ccc(OCCCN(CCCC)CCCC)cc1 [DRONEDARONE] | 5.92 | – | – | 3.31 | – | – | – | – | – | – | –
11 | O=C(O)Cc1ccccc1Oc1ccc(Cl)cc1Cl [FENCLOFENAC] | > 30 | > 30 | > 30 | – | > 10 | > 10 | > 10 | > 10 | > 30 | > 30 | > 30
12 | CC(C)C(=O)Oc1ccc(CO)cc1[C@H](CCN(C(C)C)C(C)C)c1ccccc1 [FESOTERODINE] | > 30 | > 30 | – | > 30 | – | – | – | – | – | – | –
13 | Cc1ccc(C)c(OCCCC(C)(C)C(=O)O)c1 [GEMFIBROZIL] | > 30 | > 30 | > 30 | – | > 30 | > 10 | > 10 | > 10 | > 30 | > 30 | > 30
14 | C#C[C@]1(O)C=C[C@H]2[C@@H]3CCC4=CC(=O)CC[C@@H]4[C@H]3CC[C@@]21CC [GESTODENE] | – | 1.2 | – | 4.59 | – | – | – | – | – | – | –
15 | COc1c2occc2c(OC)c2c(=O)cc(C)oc12 [KHELLIN] | > 30 | – | > 30 | > 30 | – | – | – | – | – | – | –
16 | CC(C)[C@@H]1CC[C@@H](C)C[C@H]1O [LEVOMENTHOL] | > 30 | – | > 30 | > 30 | – | – | – | – | – | – | –
17 | COC(=O)[C@@H](N)Cc1ccc(O)c(O)c1 [MELEVODOPA] | > 30 | – | > 30 | > 30 | – | – | – | – | – | – | –
18 | C=N[C@@H](C(=O)N[C@@H]1C(=O)N2[C@@H]1SC(C)(C)[C@@H]2C(=O)O)c1ccccc1 [METAMPICILLIN] | > 30 | – | > 30 | > 30 | – | – | – | – | – | – | –
19 | CCCCC1C(=O)N(c2ccccc2)N(c2ccc(O)cc2)C1=O (stereo not drawn) [OXYPHENBUTAZONE ANHYDROUS] | > 30 | – | > 30 | > 30 | – | – | – | – | – | – | –
20 | O=C(O)CN(CCN(CC(=O)O)CC(=O)O)CCN(CC(=O)O)CC(=O)O [PENTETIC ACID] | 1.28 | – | > 30 | 0.0429 | – | – | – | – | – | – | –
21 | Cc1ccccc1C(=O)Nc1ccc(C(=O)N2CCCC(O)c3cc(Cl)ccc32)c(C)c1 (stereo not drawn) [TOLVAPTAN] | > 30 | – | > 30 | > 30 | – | – | – | – | – | – | –
22 | C[C@]12C=CC(=O)C=C1CC[C@H]1[C@@H]3C[C@@H](O)[C@](O)(C(=O)CO)[C@@]3(C)C[C@H](O)[C@@]12F [TRIAMCINOLONE] | > 30 | > 30 | > 30 | – | – | – | – | – | – | – | –
23 | CC[C@]12CCCN3CCc4c(n(c5ccccc45)[C@@](O)(C(=O)OC)C1)[C@@H]32 [VINCAMINE] | > 30 | – | > 30 | > 30 | – | – | – | – | – | – | –
24 | CCC1=C[C@@H]2CN(C1)Cc1c([nH]c3ccccc13)[C@@](C(=O)OC)(c1cc3c(cc1OC)N(C)[C@H]1[C@@](O)(C(=O)OC)[C@H](OC(C)=O)[C@]4(CC)C=CCN5CC[C@]31[C@@H]54)C2 [VINORELBINE] | > 30 | > 30 | > 30 | – | – | – | – | – | – | – | –
25 | O=C1Cc2cc(CCN3CCN(c4nsc5ccccc45)CC3)c(Cl)cc2N1 [ZIPRASIDONE] | 0.0179 | > 30 | 11.2 | – | > 30 | > 10 | > 10 | > 10 | > 30 | > 30 | > 30
